From patent publication US6858620B2, “Condensed pyridoindole derivatives” (Lilly ICOS, LLC, priority 2000, dated 2005)

What was measured:
[1] = target: T1, human recombinant PDE5 (Homo sapiens, UniProt O76074); experiment: Inhibitory effect on cGMP-PDE (PDE5 IC50, one-step assay); assay type: biochemical; settings: in vitro, 0.15 μM 8-[H3]-cGMP, 30 minutes incubation
T1 construct: host or cells: Saccharomyces cerevisiae strain BJ2-54 (ATCC 74465), described as an exemplary method
Description: The compounds of structural formula (I) were tested for an ability to inhibit PDE5. The ability of a compound to inhibit PDE5 activity is related to the IC50 value for the compound, i.e., the concentration of inhibitor required for 50% inhibition of enzyme activity. The IC50 value for compounds of structural formula (I) were determined using recombinant human PDE5.
cGMP-PDE activity of compounds of the present invention was measured using a one-step assay adapted from Wells et al., Biochim. Biophys. Acta, 384, 430 (1975). The reaction medium contained 50 mM Tris-HCl, pH 7.5, 5 mM magnesium acetate, 250 μg/ml 5′-Nucleotidase, 1 mM EGTA, and 0.15 μM 8-[H^3]-cGMP. Unless otherwise indicated, the enzyme used was a human recombinant PDE5 (ICOS Corp., Bothell, Wash.).
Compounds of the invention were dissolved in DMSO finally present at 2% in the assay.

Compound: O=C1CC(=O)N2C1Cc1c([nH]c3ccccc13)C2c1ccc2c(c1)OCO2 (centres unmarked) [Example 9, 5-Benzo[1,3]dioxol-5-yl-5,6,11,11a-tetrahydroindolizino[6,7-b]indole-1,3-dione]
- IC50 [1]: 0.2 µM

Compound: CN1C(=O)[C@@H]2Cc3c([nH]c4ccccc34)[C@@H](c3ccc4c(c3)OCO4)N2C1=S [Example 6, (3aS,10R)-10-Benzo(1,3)dioxol-5-yl-2-methyl-1-thioxo-1,2,3a,4,9,10-hexahydro-2,9,10a-triazacyclopenta[b]fluoren-3-one]
- IC50 [1]: 0.012 µM
- melting point: 234 to 236 °C

Compound: O=C1OCC2Cc3c([nH]c4ccccc34)C(c3ccc4c(c3)OCO4)N12 (centres unmarked) [Example 13, 10-Benzo[1,3]dioxol-5-yl-3a,4,9,10-tetrahydro-3H-2-oxa-9,10a-diazacyclopenta[b]fluoren-1-one]
- IC50 [1]: 0.07 µM

Compound: O=C1OC(=O)N2[C@H](c3ccc4c(c3)OCO4)c3[nH]c4ccccc4c3C[C@H]12 [Example 1, (3aR,10R)-(+)-10-Benzo[1,3]dioxol-5-yl-3a,4,9,10-tetrahydro-2-oxa-9,10a-diaza-cyclopenta[β]fluorene-1,3-dione]
- IC50 [1]: 0.205 µM
- melting point: 197 to 202 °C

Compound: O=S1OCC2Cc3c([nH]c4ccccc34)C(c3ccc4c(c3)OCO4)N21 (centres unmarked) [Example 15, 10-Benzo[1,3]dioxol-5-yl-3a,4,9,10-tetrahydro-3H-2-oxa-1-thia-9,10a-diazacyclopenta[b]fluorene-1-oxide]
- IC50 [1]: 0.02 µM

Compound: O=C1CCN2[C@H](c3ccc4c(c3)OCO4)c3[nH]c4ccccc4c3C[C@H]12 (racemic) [Example 14, (+−, trans)-5-Benzo[1,3]dioxol-5-yl,2,3,5,6,11,11a-hexahydro-indolizino[6,7-b]indol-1-one]
- IC50 [1]: 0.39 µM

Compound: CCCCN1C(=O)[C@@H]2Cc3c([nH]c4ccccc34)[C@H](c3ccc(OC)cc3)N2C1=S (racemic) [Example 7, (+−, trans)-2-Butyl-10-(4-methoxyphenyl)-1-thioxo-1,2,3a,4,9,10-hexahydro-2,9,10a-triazacyclopenta-[b]fluoren-3-one]
- IC50 [1]: 0.02 µM

Compound: COc1ccc([C@@H]2c3[nH]c4ccccc4c3C[C@H]3C(=O)N(Cc4ccccc4)CN23)cc1 (racemic) [Example 12, (+−, cis)-2-Benzyl-10-(4-methoxyphenyl)-1,2,3a,4,9,10-hexahydro-2,9,10a-triazacyclopenta[b]fluoren-3-one]
- IC50 [1]: 0.06 µM

Compound: CN1C[C@@H]2Cc3c([nH]c4ccccc34)[C@H](c3ccc4c(c3)OCO4)N2C1=O (racemic) [Example 11, (+−, cis)-10-Benzo[1,3]dioxol-5-yl-2-methyl-2,3,3a,4,9,10-hexahydro-2,9,10a-triazacyclopenta[b]fluoren-1-one]
- IC50 [1]: 0.06 µM

Compound: CN1C(=O)N2[C@H](c3ccc4c(c3)OCO4)c3[nH]c4ccccc4c3C[C@H]2C1=S [Example 5, (3aS,10R)-10-Benzo(1,3)dioxol-5-yl-2-methyl-3-thioxo-2,3,3a,4,9,10-hexahydro-2,9,10a-triazacyclopenta[b]fluoren-1-one]
- IC50 [1]: 0.012 µM
- melting point: 168 to 174 °C

Compound: O=C1OC(=S)N2[C@H](c3ccc4c(c3)OCO4)c3[nH]c4ccccc4c3C[C@H]12 [Example 3, (3aR,10R)-10-Benzo[1,3]dioxol-5-yl-1-thioxo3a,4,9,10-tetrahydro-2-oxa-9,10a-diaza-cyclopenta[β]fluoren-3-one]
- IC50 [1]: 0.053 µM
